Series [1] relates to MCF-7 breast carcinoma cells. Kind of series: In Vitro Cell Proliferation Assay (MCF-7). The format is cell-based. The conditions noted are these: Homo sapiens, MCF7; 72 hours exposure, CellTiterGlo. The procedure:
(§1) In Vitro Cell Proliferation Assay
(§2) To evaluate the antiproliferative activity of a compound of formula (I) the following human cell lines were used: A2780 ovarian and MCF-7 breast carcinoma; TT and MZ-CRC-1 medullary thyroid carcinoma, harboring a mutated RET-C634W and RET-M918T receptor respectively, LC-2/ad Non Small Cell Lung Carcinoma, expressing the CCDC6-RET fusion gene product. Exponentially growing cells were seeded and incubated at 37° C. in a humidified 5% C02 atmosphere using appropriate medium supplemented with 10% Fetal Bovine Serum. 24 hours following cell plating, scalar doses of the compounds dissolved in 0.1% DMSO were added to the medium and cells were exposed to drugs for either 72 hours (MCF-7 and A2780) or 144 hours (TT, MZ-CRC-1 and LC-2/ad), according to their different proliferation rate. At the end of treatment, cell proliferation was determined by an intracellular ATP monitoring system (CellTiterGlo—Promega), following manufacturer's instructions, and using an Envision instrument (PerkinElmer) as reader. Data obtained from compound versus vehicle treated cells were compared using Assay Explorer (Symyx Technologies Inc) software. IC50 values were calculated using sigmoidal interpolation curve fitting.
Background: In ATP-based viability assays light output follows the ATP content of the culture.

The test system of series [2] is A2780 ovarian carcinoma cells. The series can be described thus: In Vitro Cell Proliferation Assay (A2780). The format is cell-based. The conditions noted are these: Homo sapiens, 72 hours exposure, CellTiterGlo. The procedure: as §1, §2
A short description of series [3]: High-Throughput Solubility Assay. Type of series: physicochemical. The conditions noted are these: for solubility at 24 h: kinetic from dmso stock, pH 7, aqueous potassium phosphate buffer, nominal 200 μM, 24 h at room temperature. The procedure: High-Throughput Solubility Assay
A nominal 200 μM suspensions/solutions of a compound of formula (I) in aqueous potassium phosphate buffer at pH=7 and aqueous citric acid buffer at pH=3 were prepared on a “Multiscreen-HTS”, 0.2 μm filter plate (Millipore, Billerica, Mass.). These solutions were stirred for 10 min and stored for 24 h at room temperature to pre-saturate the membrane filter and to reach a “pseudo-thermodynamic solubility”. Then the plate was put on a 500 μL 96 multiwell plate containing 200 μL of acetonitrile in each well and centrifuged at 2000 rpm for 5 minutes. The so obtained solutions were then analyzed simultaneously by HPLC-UV with standard solutions for quantification.

In series [4] the test system is TT medullary thyroid carcinoma cells, harboring a mutated RET-C634W receptor. The series can be described thus: In Vitro Cell Proliferation Assay (TT). The conditions noted are these: Homo sapiens; 144 hours exposure, CellTiterGlo. Type of series: cell-based. The procedure:
as §1, §2

Series [5] has as its system MZ-CRC-1 medullary thyroid carcinoma cells, harboring a mutated RET-M918T receptor. The series can be described thus: In Vitro Cell Proliferation Assay (MZ-CRC-1). The format is cell-based. The conditions noted are these: Homo sapiens, 144 hours exposure, CellTiterGlo. As to the method:
as §1, §2

As a reminder, the IC50 is the concentration that inhibits the measured activity by half. The solubility is the dissolved amount per volume that the medium holds. A high value points to much dissolved substance.

Values after ≈ are worked out from the molar mass of the structure shown.

In the case of `CCN1CCN(Cc2cc(NC(=O)Nc3cccc(C#Cc4cnc(N)nc4-c4cc5c(n4C)CCNC5=O)c3)ccc2C(F)(F)F)CC1` [Cmpd 22, 1-{3-[2-Amino-4-(1-methyl-4-oxo-4,5,6,7-tetrahydro-1H-pyrrolo[3,2-c]pyridin-2-yl)-pyrimidin-5-ylethynyl]-phenyl}-3-[3-(4-ethyl-piperazin-1-ylmethyl)-4-trifluoromethyl-phenyl]-urea], the IC50 in series [1] turned out to be 2810 nM; in series [2], 1150 nM; in series [4], 0.007 µM. The solubility at 24 h in series [3] came out at 5.8 µM (≈ 3.9 µg/mL).

As for `CCN1CCN(Cc2cc(NC(=O)Nc3cccc(C#Cc4cnc(N)nc4-c4cc5c(n4C)CCNC5=O)c3)cc(C(F)(F)F)c2)CC1` [Cmpd 29, 1-{3-[2-Amino-4-(1-methyl-4-oxo-4,5,6,7-tetrahydro-1H-pyrrolo[3,2-c]pyridin-2-yl)-pyrimidin-5-ylethynyl]-phenyl}-3-[3-(4-ethyl-piperazin-1-ylmethyl)-5-trifluoromethyl-phenyl]-urea], the figures for the IC50 in series [1], in series [2] and in series [4] were 9160 nM, 2230 nM and 0.085 µM, respectively. Moreover, the solubility at 24 h in series [3] was 7.4 µM (≈ 4.97 µg/mL).

In the case of `CCN1CCN(Cc2ccc(NC(=O)Nc3ccc(C#Cc4cnc(N)nc4-c4cc5c(n4C)CCNC5=O)cc3)cc2C(F)(F)F)CC1` [Cmpd 30, 1-{4-[2-Amino-4-(1-methyl-4-oxo-4,5,6,7-tetrahydro-1H-pyrrolo[3,2-c]pyridin-2-yl)-pyrimidin-5-ylethynyl]-phenyl}-3-[4-(4-ethyl-piperazin-1-ylmethyl)-3-trifluoromethyl-phenyl]-urea], the results for the IC50 in series [1], in series [2] and in series [4] were 2190 nM, 1000 nM and 0.008 µM, respectively. Also, the solubility at 24 h in series [3] is 1.7 µM (≈ 1.14 µg/mL).

With `CCN1CCN(Cc2ccc(NC(=O)Nc3cccc(C#Cc4cnccc4-c4cc5c(n4C)CCNC5=O)c3)cc2C(F)(F)F)CC1` [Cmpd 38, 1-[4-(4-Ethyl-piperazin-1-ylmethyl)-3-trifluoromethyl-phenyl]-3-{3-[4-(1-methyl-4-oxo-4,5,6,7-tetrahydro-1H-pyrrolo[3,2-c]pyridin-2-yl)-pyridin-3-ylethynyl]-phenyl}-urea], the IC50 in series [1] was 5040 nM; in series [2], 1950 nM; in series [4], 0.038 µM. In series [3], the solubility at 24 h stood at 10.8 µM (≈ 7.08 µg/mL).

`CCN1CCN(Cc2ccc(NC(=O)N3CCc4ccc(C#Cc5cnc(N)nc5-c5cc6c(n5C)CCNC6=O)cc43)cc2C(F)(F)F)CC1` [Cmpd 44, 6-[2-Amino-4-(1-methyl-4-oxo-4,5,6,7-tetrahydro-1H-pyrrolo[3,2-c]pyridin-2-yl)-pyrimidin-5-ylethynyl]-2,3-dihydro-indole-1-carboxylic acid [4-(4-ethyl-piperazin-1-ylmethyl)-3-trifluoromethyl-phenyl]-amide]: the half-inhibitory concentration (IC50) in series [1] came out at 3480 nM; in series [2] it was 1720 nM; in series [4], 0.069 µM; in series [5] it was 0.231 µM. The compound also showed a solubility at 24 h in series [3] of 4.7 µM (≈ 3.28 µg/mL).

Regarding `Cn1nc(C(C)(C)C)cc1NC(=O)Cc1cccc(C#Cc2cnc(N)nc2-c2cc3c(n2C)CCNC3=O)c1` [Cmpd 105, 2-{3-[2-Amino-4-(1-methyl-4-oxo-4,5,6,7-tetrahydro-1H-pyrrolo[3,2-c]pyridin-2-yl)-pyrimidin-5-ylethynyl]-phenyl}-N-(5-tert-butyl-2-methyl-2H-pyrazol-3-yl)-acetamide], the 50% inhibitory concentration (IC50) in series [1] is greater than 10000 nM; in series [2], 2740 nM; in series [4], 0.025 µM. In addition, in series [3], the solubility at 24 h is 15.3 µM (≈ 8.21 µg/mL).

`CCN1CCN(Cc2ccc(NC(=O)Cc3cncc(C#Cc4cnc(N)nc4-c4cc5c(n4C)CCNC5=O)c3)cc2C(F)(F)F)CC1` [Cmpd 122, 2-{5-[2-Amino-4-(1-methyl-4-oxo-4,5,6,7-tetrahydro-1H-pyrrolo[3,2-c]pyridin-2-yl)-pyrimidin-5-ylethynyl]-pyridin-3-yl}-N-[4-(4-ethyl-piperazin-1-ylmethyl)-3-trifluoromethyl-phenyl]-acetamide]: the half-inhibitory concentration (IC50) came to 2690 nM in series [1], 704 nM in series [2] and 0.001 µM in series [4]. For the same compound, the solubility at 24 h in series [3] stood at 9.4 µM (≈ 6.31 µg/mL).

Take `CCN1CCN(Cc2ccc(NC(=O)Cc3ccc(C#Cc4cnc(N)nc4-c4cc5c(n4C)CCNC5=O)cc3)cc2C(F)(F)F)CC1` [Cmpd 123, 2-{4-[2-Amino-4-(1-methyl-4-oxo-4,5,6,7-tetrahydro-1H-pyrrolo[3,2-c]pyridin-2-yl)-pyrimidin-5-ylethynyl]-phenyl}-N-[4-(4-ethyl-piperazin-1-ylmethyl)-3-trifluoromethyl-phenyl]-acetamide]: the 50% inhibitory concentration (IC50) is greater than 10000 nM in series [1], 3900 nM in series [2] and 0.06 µM in series [4]. In series [3], this compound registered a solubility at 24 h of 25.1 µM (≈ 16.8 µg/mL).

Take `CCN1CCN(Cc2ccc(NC(=O)Cc3ccc(C#Cc4cnc(N)nc4-c4cc5c(n4C)CCNC5=O)s3)cc2C(F)(F)F)CC1` [Cmpd 129, 2-{5-[2-Amino-4-(1-methyl-4-oxo-4,5,6,7-tetrahydro-1H-pyrrolo[3,2-c]pyridin-2-yl)-pyrimidin-5-ylethynyl]-thiophen-2-yl}-N-[4-(4-ethyl-piperazin-1-ylmethyl)-3-trifluoromethyl-phenyl]-acetamide]: the IC50 in series [1] was determined as 8180 nM; in series [2], 105 nM; in series [4] it was 0.002 µM. The compound also displayed a solubility at 24 h in series [3] of 26.4 µM (≈ 17.9 µg/mL).

For the compound `CN1CCCN(Cc2ccc(NC(=O)Cc3cccc(C#Cc4cnc(N)nc4-c4cc5c(n4C)CCNC5=O)c3)cc2C(F)(F)F)CC1` [Cmpd 149, 2-{3-[2-Amino-4-(1-methyl-4-oxo-4,5,6,7-tetrahydro-1H-pyrrolo[3,2-c]pyridin-2-yl)-pyrimidin-5-ylethynyl]-phenyl}-N-[4-(4-methyl-[1,4]diazepan-1-ylmethyl)-3-trifluoromethyl-phenyl]-acetamide], the concentration for half-maximal inhibition (IC50) in series [1] was 3720 nM; in series [2] it was 1910 nM; in series [4], 0.013 µM. The compound further registered a solubility at 24 h in series [3] of 30.4 µM (≈ 20.4 µg/mL).

With `CN(C)[C@H]1CCN(Cc2ccc(NC(=O)Cc3cccc(C#Cc4cnc(N)nc4-c4cc5c(n4C)CCNC5=O)c3)cc2C(F)(F)F)C1` [Cmpd 150, 2-{3-[2-Amino-4-(1-methyl-4-oxo-4,5,6,7-tetrahydro-1H-pyrrolo[3,2-c]pyridin-2-yl)-pyrimidin-5-ylethynyl]-phenyl}-N-[4-((S)-3-dimethylamino-pyrrolidin-1-ylmethyl)-3-trifluoromethyl-phenyl]-acetamide], the IC50 in series [1] came out at 5640 nM; in series [2], 1930 nM; in series [4], 0.006 µM. In series [3], the solubility at 24 h was 40.2 µM (≈ 27 µg/mL).

Take `CCCN1CCN(Cc2ccc(NC(=O)Cc3cccc(C#Cc4cnc(N)nc4-c4cc5c(n4C)CCNC5=O)c3)cc2C(F)(F)F)CC1` [Cmpd 164, 2-{3-[2-Amino-4-(1-methyl-4-oxo-4,5,6,7-tetrahydro-1H-pyrrolo[3,2-c]pyridin-2-yl)-pyrimidin-5-ylethynyl]-phenyl}-N-[4-(4-propyl-piperazin-1-ylmethyl)-3-trifluoromethyl-phenyl]-acetamide]: the values for the IC50 in series [1], in series [2] and in series [4] were 5620 nM, 2020 nM and 0.002 µM, respectively. In series [3], this compound displayed a solubility at 24 h of 8.9 µM (≈ 6.09 µg/mL).

With `CCCN1CCN(Cc2ccc(NC(=O)Cc3cccc(C#Cc4cnc(NC)nc4-c4cc5c(n4C)CCNC5=O)c3)cc2C(F)(F)F)CC1` [Cmpd 179, 2-{3-[2-Methylamino-4-(1-methyl-4-oxo-4,5,6,7-tetrahydro-1H-pyrrolo[3,2-c]pyridin-2-yl)-pyrimidin-5-ylethynyl]-phenyl}-N-[4-(4-propyl-piperazin-1-ylmethyl)-3-trifluoromethyl-phenyl]-acetamide], the half-inhibitory concentration (IC50) in series [2] was found to be 3240 nM; in series [4], 0.017 µM; in series [5], 0.038 µM. The solubility at 24 h in series [3] is 1.2 µM (≈ 0.839 µg/mL).

On to `Cn1c(-c2nc(N)ncc2C#Cc2cccc(NC(=O)Nc3ccc(C(F)(F)F)cc3)c2)cc2c1CCNC2=O` [Reference cmpd, 1-{3-[2-Amino-4-(1-methyl-4-oxo-4,5,6,7-tetrahydro-1H-pyrrolo[3,2-c]pyridin-2-yl)-pyrimidin-5-ylethynyl]-phenyl}-3-(4-trifluoromethyl-phenyl)-urea, reference compound], for which the IC50 in series [1] was 4540 nM; in series [2], 2750 nM; in series [4], 0.041 µM; in series [5] it was 0.317 µM. Also, the solubility at 24 h in series [3] is less than 1 µM. Further, the “solubility (in words)” value in series [3] (neutral, physiological pH (pH 7), compared with the reference compound) is reported as “lack of solubility”.
